Read-outs that look alike come from different tables or passages of the source.
What was measured:
[1] = molecular target: HRAS wild-type protein (Homo sapiens, UniProt P01112); experiment: Binding to HRAS by surface plasmon resonance (SPR), KD and KD ratio to KRAS
Method in brief: (§1)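 Biotinylated GDP-bound RAS was captured at about 100–300 RU. Running buffer: HBS pH 7.4, 10 mM MgCl2, 10 µM GDP, 1 mM DTT, 0.01% Tween 20, 4% DMSO.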

[2] = molecular target: GDP-bound NRAS wild-type protein (Homo sapiens, UniProt P01111); experiment: Binding to NRAS by surface plasmon resonance (SPR), KD and KD ratio to KRAS
Method in brief: as §1

[3] = system: human lung cancer strain NCI-H441; experiment: NCI-H441 cell proliferation inhibitory activity (CellTiter-Glo, 4 days); type: cell-based; settings: read-out: NCl-H441 IC50
Method in brief: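 Step one: dispense the test compound in serial DMSO dilutions. Step three: add the reagent and measure […].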

[4] = molecular target: GDP-bound KRAS wild-type protein (Homo sapiens, UniProt P01116); experiment: Binding to KRAS by surface plasmon resonance (SPR), dissociation constant KD
Method in brief: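 Each cycle, GDP-bound biotin-Avi RAS was captured (~100–300 RU), compound concentrations were injected low to high for 75 s each at 100 µL/min, then the chip was regenerated. Buffer: HBS pH 7.4, 10 mM MgCl2, 10 µM GDP, 1 mM DTT, 4% DMSO; 30°C. KD from a 1:1 binding model.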

[5] = ratio of KD with respect to HRAS wild-type protein to KD with respect to KRAS
[6] = ratio of KD with respect to GDP-bound NRAS wild-type protein to KD with respect to KRAS
[7] = 50% proliferation inhibitory concentration, four days
[8] = Single Cycle Kinetics, 1:1 binding model
[9] = ratio of KD for HRAS wild-type protein to KD for KRAS
[10] = ratio of KD for GDP-bound NRAS wild-type protein to KD for KRAS

Chain of GDP-bound KRAS wild-type protein (P01116 1-188 isoform P01116-2): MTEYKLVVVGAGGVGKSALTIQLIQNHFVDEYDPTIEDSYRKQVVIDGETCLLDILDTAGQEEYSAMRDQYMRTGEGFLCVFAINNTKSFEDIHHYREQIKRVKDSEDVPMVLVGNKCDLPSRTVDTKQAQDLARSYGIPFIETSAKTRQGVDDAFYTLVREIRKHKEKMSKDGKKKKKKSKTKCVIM
Chain of GDP-bound NRAS wild-type protein (P01111 whole entry): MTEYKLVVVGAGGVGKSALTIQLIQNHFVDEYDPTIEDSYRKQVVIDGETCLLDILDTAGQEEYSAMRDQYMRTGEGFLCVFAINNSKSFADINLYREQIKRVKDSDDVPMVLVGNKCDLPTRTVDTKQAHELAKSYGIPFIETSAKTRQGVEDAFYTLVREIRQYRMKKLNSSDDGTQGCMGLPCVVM
Chain of HRAS wild-type protein (P01112 whole entry): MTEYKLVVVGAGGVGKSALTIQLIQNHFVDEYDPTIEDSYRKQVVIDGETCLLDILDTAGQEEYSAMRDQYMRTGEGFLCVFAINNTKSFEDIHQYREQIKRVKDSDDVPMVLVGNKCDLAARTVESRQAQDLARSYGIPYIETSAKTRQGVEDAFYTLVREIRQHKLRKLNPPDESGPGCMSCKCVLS

SMILES	HRAS /KRAS [1, 5]	NRAS /KRAS [2, 6]	IC50 [3, 7]	Kd [4, 8]	HRAS /KRAS [1, 9]	NRAS /KRAS [2, 10]	IC50 ([3]; NCI-H441 cells, 4 days)	Kd ([4]; Single Cycle Kinetics)	Kd ([4]; 1:1 binding model)
CCO[C@@H]1C[C@H]2C(=O)NC3(CCC3)C(=O)N(C)[C@@H](C3CCCC3)C(=O)N(C)[C@H](C(=O)N3CCOCC3)CC(=O)N(C)[C@@H](CC)C(=O)N[C@@H]([C@@H](C)CC)C(=O)N3CC[C@H]3C(=O)N(C)[C@H]3C[C@@H](C)[C@@H](C)CN(C3=O)[C@@H](Cc3ccc(C(F)(F)F)cc3)C(=O)N(C)CC(=O)N[C@@H](CCc3cc(F)c(C(F)(F)F)c(F)c3)C(=O)N2C1 [PP1351]	B (a compound having 3 or more and less than 10 is denoted as B)	A (a compound having 10 or more and less than 20 is denoted as A)	12.8 nM	0.13 nM					
CCC[C@H]1C(=O)N[C@@H](C23CC(C2)C3)C(=O)N2CCC[C@H]2C(=O)N(C)[C@H]2C/C=C\CCN(C2=O)[C@@H](Cc2ccc(C(F)(F)F)cc2)C(=O)N(C)CC(=O)N[C@@H](CCc2ccc(C(F)(F)F)c(OC)c2)C(=O)N2C[C@H](OCC)C[C@H]2C(=O)N(C)C2(CCC2)C(=O)N(C)[C@@H](C2CCCC2)C(=O)N(C)[C@H](C(=O)N(C)C)CC(=O)N1C [PP3343]					A (a compound having 10 or more and less than 20 is denoted as A)	A (a compound having 10 or more and less than 20 is denoted as A)	29.3 nM	2.4 nM	
CCO[C@@H]1C[C@H]2C(=O)NC3(CCC3)C(=O)N(C)[C@@H](C3CCCC3)C(=O)N(C)[C@H](C(=O)N3CCOCC3)CC(=O)N(C)[C@@H](CC(C)C)C(=O)N[C@@H]([C@@H](C)CC)C(=O)N3CC[C@H]3C(=O)N(C)[C@H]3C[C@@H](C)[C@@H](C)CN(C3=O)[C@@H](Cc3ccc(C(F)(F)F)cc3)C(=O)N(C)CC(=O)N[C@@H](CCc3cc(F)c(C(F)(F)F)c(F)c3)C(=O)N2C1 [PP1355]	B (a compound having 3 or more and less than 10 is denoted as B)	A (a compound having 10 or more and less than 20 is denoted as A)	10.2 nM	0.16 nM					
CCO[C@@H]1C[C@H]2C(=O)NC3(CCCC3)C(=O)N(C)[C@@H](C3CCC3)C(=O)N(C)[C@H](C(=O)N(C)C)CC(=O)N(C)[C@@H](CC(C)C)C(=O)N[C@@H]([C@@H](C)CC)C(=O)N(C)CC(=O)N(C)[C@H]3C/C(F)=C\CCN(C3=O)[C@@H](Cc3ccc(C(F)(F)F)cc3)C(=O)N(C)CC(=O)N[C@@H](CCc3cc(F)c(C(F)(F)F)c(F)c3)C(=O)N2C1 [PP3516]					B (a compound having 3 or more and less than 10 is denoted as B)	B (a compound having 3 or more and less than 10 is denoted as B)	55.4 nM	1.4 nM	
CCO[C@@H]1C[C@H]2C(=O)NC3(CCC3)C(=O)N(C)[C@@H](C(CC)CC)C(=O)N(C)[C@H](C(=O)N3CCCC3)CC(=O)N(C)[C@@H](C)C(=O)N[C@@H]([C@@H](C)CC)C(=O)N(C)CC(=O)N(C)[C@H]3C/C=C\CCN(C3=O)[C@@H](CC3CCCCC3)C(=O)N(C)CC(=O)N[C@@H](CCc3cc(F)c(C(F)(F)F)c(F)c3)C(=O)N2C1 [PP1434]	A (a compound having 10 or more and less than 20 is denoted as A)	A (a compound having 10 or more and less than 20 is denoted as A)	112 nM	0.69 nM					
CCc1cc(CC[C@@H]2NC(=O)CN(C)C(=O)[C@H](Cc3ccc(C(F)F)cc3)N3CC/C=C\C[C@@H](C3=O)N(C)C(=O)CN(C)C(=O)[C@H]([C@@H](C)OC)NC(=O)[C@H](CC)N(C)C(=O)C[C@@H](C(=O)N(C)C)N(C)C(=O)[C@H](C(CC)CC)N(C)C(=O)C3(CCC3)N(C)C(=O)[C@@H]3C[C@@H](OC(C)C)CN3C2=O)ccc1C(F)(F)F [PP3500]					A (a compound having 10 or more and less than 20 is denoted as A)	A (a compound having 10 or more and less than 20 is denoted as A)	12.2 nM	0.31 nM	
CCOC[C@H]1C(=O)N[C@@H]([C@@H](C)CC)C(=O)N(C)CC(=O)N(C)[C@H]2C/C=C\CCN(C2=O)[C@@H](CC2CCC(F)(F)CC2)C(=O)N(C)CC(=O)N[C@@H](CCc2ccc(C(F)(F)F)c(Cl)c2)C(=O)N2C[C@H](OCC)C[C@H]2C(=O)NC2(CC(C)(C)C2)C(=O)N(C)[C@@H](C(CC)CC)C(=O)N(C)[C@H](C(=O)N(C)C)CC(=O)N1C [PP2460]					A (a compound having 10 or more and less than 20 is denoted as A)	A (a compound having 10 or more and less than 20 is denoted as A)	18.7 nM		0.71 nM
CCC[C@H]1C(=O)N[C@@H](CC(C)C)C(=O)N(C2CC2)CC(=O)N(C)[C@H]2C/C=C\CCN(C2=O)[C@@H](Cc2ccc(C)cc2)C(=O)N(C)CC(=O)N[C@@H](CCc2cc(F)c(C(F)(F)F)c(F)c2)C(=O)N2C[C@H](OCC)C[C@H]2C(=O)NC2(CC(C)(C)C2)C(=O)N(C)[C@@H](C2CCCC2)C(=O)N(C)[C@H](C(=O)N(C)C)CC(=O)N1C [PP2508]					B (a compound having 3 or more and less than 10 is denoted as B)	A (a compound having 10 or more and less than 20 is denoted as A)	124 nM		3.4 nM
CCO[C@@H]1C[C@H]2C(=O)NC3(CC(C)(C)C3)C(=O)N(C)[C@@H](C(CC)CC)C(=O)N(C)[C@H](C(=O)N(C)C)CC(=O)N(C)[C@@H](C(C)C)C(=O)N[C@@H]([C@@H](C)CC)C(=O)N(C)CC(=O)N(C)[C@H]3C/C=C\CCN(C3=O)[C@@H](CC3CCC(F)(F)CC3)C(=O)N(C)CC(=O)N[C@@H](CCc3ccc(C(F)(F)F)c(OC)c3)C(=O)N2C1 [PP2477]					A (a compound having 10 or more and less than 20 is denoted as A)	A (a compound having 10 or more and less than 20 is denoted as A)	127 nM		1.8 nM
CCOC[C@H]1C(=O)N[C@@H]([C@@H](C)CC)C(=O)N(C2CC2)CC(=O)N(C)[C@@H]2C/C=C\CCN(C2=O)[C@@H](Cc2ccc(C)cc2)C(=O)N(C)CC(=O)N[C@@H](CCc2ccc(C(F)(F)F)c(OC)c2)C(=O)N2C[C@H](OCC)C[C@@H]2C(=O)NC2(CC(C)(C)C2)C(=O)N(C)[C@H](CC2CCC2)C(=O)N(C)[C@H](C(=O)N(C)C)CC(=O)N1C [PP2760]					B (a compound having 3 or more and less than 10 is denoted as B)	A (a compound having 10 or more and less than 20 is denoted as A)	144 nM		4.8 nM
CCO[C@@H]1C[C@H]2C(=O)NC3(CC(C)(C)C3)C(=O)N(C)[C@@H](C3CCCC3)C(=O)N(C)[C@H](C(=O)N(C)C)CC(=O)N[C@@H](CC(C)C)C(=O)N[C@@H]([C@@H](C)CC)C(=O)N(C)CC(=O)N(C)[C@H]3C/C=C\CCN(C3=O)[C@@H](Cc3ccc(C(F)(F)F)cc3)C(=O)N(C)CC(=O)N[C@@H](CCc3ccc(C(F)(F)F)c(Cl)c3)C(=O)N2C1 [PP3452]					A (a compound having 10 or more and less than 20 is denoted as A)	A (a compound having 10 or more and less than 20 is denoted as A)	14.5 nM	0.19 nM	
CCO[C@@H]1C[C@H]2C(=O)NC3(CCC3)C(=O)N(C)[C@@H](C3CCCC3)C(=O)N(C)[C@H](C(=O)N3CCC3)CC(=O)N(C)[C@@H](CC)C(=O)N[C@@H]([C@@H](C)CC)C(=O)N(C)CC(=O)N(C)[C@H]3C/C=C\CCN(C3=O)[C@@H](CC3CCCCC3)C(=O)N(C)CC(=O)N[C@@H](CCc3cc(F)c(C(F)(F)F)c(F)c3)C(=O)N2C1 [PP1445]	A (a compound having 10 or more and less than 20 is denoted as A)	A (a compound having 10 or more and less than 20 is denoted as A)	92.8 nM	0.27 nM					
CCO[C@@H]1C[C@H]2C(=O)NC3(CCC3)C(=O)N(C)[C@@H](C3CCCC3)C(=O)N(C)[C@H](C(=O)N3CCOCC3)CC(=O)N(C)[C@@H](Cc3ccccc3C#N)C(=O)N[C@@H]([C@@H](C)CC)C(=O)N(C)CC(=O)N(C)[C@H]3CCCCCN(C3=O)[C@@H](Cc3ccc(F)cc3)C(=O)N(C)CC(=O)N[C@@H](CCc3cc(F)c(C(F)(F)F)c(F)c3)C(=O)N2C1 [PP1185]	B (a compound having 3 or more and less than 10 is denoted as B)	B (a compound having 3 or more and less than 10 is denoted as B)	175 nM	0.5 nM					
CCOC[C@H]1C(=O)N[C@@H]([C@@H](C)CC)C(=O)N(C)CC(=O)N(C)[C@H]2C/C=C\CCN(C2=O)[C@@H](Cc2ccc(C)cc2)C(=O)N(C)CC(=O)N[C@@H](CCc2ccc(C(F)(F)F)c(Cl)c2)C(=O)N2C[C@@H](C)C[C@H]2C(=O)NC2(CC(C)(C)C2)C(=O)N(C)[C@@H](C2CCCC2)C(=O)N(C)[C@H](C(=O)N(C)CC)CC(=O)N1C [PP2451]					A (a compound having 10 or more and less than 20 is denoted as A)	A (a compound having 10 or more and less than 20 is denoted as A)	8.6 nM		0.17 nM

From patent publication EP4603105A1, “PHARMACEUTICAL COMPOSITION CONTAINING CYCLIC COMPOUND HAVING SELECTIVE KRAS INHIBITORY EFFECT AGAINST HRAS AND NRAS” (CHUGAI SEIYAKU KABUSHIKI KAISHA, priority 2022, dated 2024)
